Experimental data taken from ChEMBL document CHEMBL3046208, “Natural and synthetic podolactones with potential use as natural herbicide models” (2000).
Calls of active or inactive are those of the source. The calls are words filed in the database; no cut-off is given here.

Legend:
Type in all cases: functional
Allium cepa [1] = assay: Stimulation of germination of Allium cepa (onion) at 0.1 mM after 5 days relative to untreated control
Hordeum vulgare [2] = assay: Stimulation of shoot length of Hordeum vulgare (barley) at 0.1 mM after 5 days relative to untreated control
Allium cepa [3] = assay: Stimulation of shoot length of Allium cepa (onion) at 0.1 mM after 5 days relative to untreated control
Allium cepa [4] = assay: Stimulation of root length of Allium cepa (onion) at 0.1 mM after 5 days relative to untreated control
Lactuca sativa [5] = assay: Inhibition of shoot length of Lactuca sativa cv. Nigra (lettuce) at 0.1 mM after 5 days relative to untreated control; conditions: 120 h
Solanum lycopersicum [6] = assay: Stimulation of shoot length of Solanum lycopersicum (tomato) at 0.1 mM after 5 days relative to untreated control
Lactuca sativa [7] = assay: Stimulation of root length of Lactuca sativa cv. Nigra (lettuce) at 0.1 mM after 5 days relative to untreated control
Hordeum vulgare [8] = assay: Stimulation of root length of Hordeum vulgare (barley) at 0.1 mM after 5 days relative to untreated control
Lactuca sativa [9] = assay: Inhibition of root length of Lactuca sativa cv. Roman (lettuce) at 0.1 mM after 5 days relative to untreated control
Allium cepa [10] = assay: Inhibition of germination of Allium cepa (onion) at 1 uM after 5 days relative to untreated control; conditions: 120 h
Hordeum vulgare [11] = assay: Inhibition of shoot length of Hordeum vulgare (barley) at 0.1 mM after 5 days relative to untreated control
Triticum aestivum [12] = assay: Inhibition of shoot length of Triticum aestivum (wheat) at 0.1 mM after 5 days relative to untreated control
Triticum aestivum [13] = assay: Inhibition of root length of Triticum aestivum (wheat) at 0.1 mM after 5 days relative to untreated control
Lepidium sativum [14] = assay: Stimulation of shoot length of Lepidium sativum at 0.1 mM after 5 days relative to untreated control
Hordeum vulgare [15] = assay: Inhibition of germination of Hordeum vulgare (barley) at 0.1 mM after 5 days relative to untreated control; conditions: 120 h
Allium cepa [16] = assay: Inhibition of root length of Allium cepa (onion) at 0.1 mM after 5 days relative to untreated control
Solanum lycopersicum [17] = assay: Stimulation of root length of Solanum lycopersicum (tomato) at 10 nM after 5 days relative to untreated control
Lepidium sativum [18] = assay: Inhibition of shoot length of Lepidium sativum at 0.1 mM after 5 days relative to untreated control; conditions: 120 h
Lepidium sativum [19] = assay: Stimulation of root length of Lepidium sativum at 0.1 mM after 5 days relative to untreated control
Triticum aestivum [20] = assay: Stimulation of shoot length of Triticum aestivum (wheat) at 0.1 mM after 5 days relative to untreated control
Solanum lycopersicum [21] = assay: Inhibition of root length of Solanum lycopersicum (tomato) at 0.1 mM after 5 days relative to untreated control; conditions: 120 h
Solanum lycopersicum [22] = assay: Inhibition of germination of Solanum lycopersicum (tomato) at 0.1 mM after 5 days relative to untreated control
Lactuca sativa [23] = assay: Stimulation of shoot length of Lactuca sativa cv. Nigra (lettuce) at 0.1 mM after 5 days relative to untreated control
Lactuca sativa [24] = assay: Inhibition of germination of Lactuca sativa cv. Nigra (lettuce) at 0.1 mM after 5 days relative to untreated control; conditions: 120 h
Lactuca sativa [25] = assay: Inhibition of germination of Lactuca sativa cv. Roman (lettuce) at 0.1 mM after 5 days relative to untreated control
Lepidium sativum [26] = assay: Stimulation of germination of Lepidium sativum at 0.1 mM after 5 days relative to untreated control
Solanum lycopersicum [27] = assay: Inhibition of shoot length of Solanum lycopersicum (tomato) at 0.1 mM after 5 days relative to untreated control; conditions: 120 h
Solanum lycopersicum [28] = assay: Stimulation of germination of Solanum lycopersicum (tomato) at 0.1 mM after 5 days relative to untreated control
Triticum aestivum [29] = assay: Stimulation of germination of Triticum aestivum (wheat) at 0.1 mM after 5 days relative to untreated control
Solanum lycopersicum [30] = assay: Stimulation of root length of Solanum lycopersicum (tomato) at 0.1 mM after 5 days relative to untreated control
Lactuca sativa [31] = assay: Stimulation of germination of Lactuca sativa cv. Roman (lettuce) at 0.1 mM after 5 days relative to untreated control
Lactuca sativa [32] = assay: Stimulation of shoot length of Lactuca sativa cv. Roman (lettuce) at 0.1 mM after 5 days relative to untreated control
Hordeum vulgare [33] = assay: Stimulation of germination of Hordeum vulgare (barley) at 0.1 mM after 5 days relative to untreated control
Lactuca sativa [34] = assay: Stimulation of root length of Lactuca sativa cv. Roman (lettuce) at 0.1 mM after 5 days relative to untreated control
Triticum aestivum [35] = assay: Inhibition of germination of Triticum aestivum (wheat) at 0.1 mM after 5 days relative to untreated control
Hordeum vulgare [36] = assay: Inhibition of root length of Hordeum vulgare (barley) at 0.1 mM after 5 days relative to untreated control; conditions: 120 h
Lactuca sativa [37] = assay: Inhibition of root length of Lactuca sativa cv. Nigra (lettuce) at 0.1 mM after 5 days relative to untreated control; conditions: 120 h
Lactuca sativa [38] = assay: Stimulation of germination of Lactuca sativa cv. Nigra (lettuce) at 0.1 mM after 5 days relative to untreated control
Lepidium sativum [39] = assay: Inhibition of germination of Lepidium sativum at 0.1 mM after 5 days relative to untreated control
Allium cepa [40] = assay: Inhibition of germination of Allium cepa (onion) at 0.1 mM after 5 days relative to untreated control
Triticum aestivum [41] = assay: Stimulation of root length of Triticum aestivum (wheat) at 0.1 mM after 5 days relative to untreated control
Lactuca sativa [42] = assay: Inhibition of shoot length of Lactuca sativa cv. Roman (lettuce) at 0.1 mM after 5 days relative to untreated control; conditions: 120 h
Allium cepa [43] = assay: Inhibition of shoot length of Allium cepa (onion) at 0.1 mM after 5 days relative to untreated control; conditions: 120 h
Lepidium sativum [44] = assay: Inhibition of root length of Lepidium sativum at 0.1 mM after 5 days relative to untreated control; conditions: 120 h
Hordeum vulgare [45] = assay: Inhibition of germination of Hordeum vulgare (barley) at 10 nM after 5 days relative to untreated control; conditions: 120 h

Structure (SMILES): COC(=O)[C@@]1(C)CCC[C@@]2(C)[C@H]1CC[C@H]1COC(=O)C[C@@H]12
- Activity (Allium cepa [1]): 20%
- Activity (Hordeum vulgare [2]): inactive
- Activity (Allium cepa [3]): 20%
- Activity (Allium cepa [4]): <20%
- inhibition at 100 µM (Lactuca sativa [5]): 20%
- Activity (Solanum lycopersicum [6]): 20%
- Activity (Lactuca sativa [7]): <20%
- Activity (Hordeum vulgare [8]): >40%
- inhibition at 100 µM (Lactuca sativa [9]; 120 h): < 20%
- inhibition at 1 µM (Allium cepa [10]): -46%
- inhibition (Hordeum vulgare [11]): inactive
- inhibition (Triticum aestivum [12]): inactive
- inhibition at 100 µM (Triticum aestivum [13]; 120 h): < 20%
- Activity (Lepidium sativum [14]): 20%
- inhibition at 100 µM (Hordeum vulgare [15]): > 40%
- inhibition at 100 µM (Allium cepa [16]; 120 h): < 20%
- Activity (Solanum lycopersicum [17]): 60%
- inhibition at 100 µM (Lepidium sativum [18]): 20%
- Activity (Lepidium sativum [19]): <20%
- Activity (Triticum aestivum [20]): inactive
- inhibition at 100 µM (Solanum lycopersicum [21]): > 40%
- inhibition (Solanum lycopersicum [22]): inactive
- Activity (Lactuca sativa [23]): 20%
- inhibition at 100 µM (Lactuca sativa [24]): 20%
- inhibition (Lactuca sativa [25]): inactive
- Activity (Lepidium sativum [26]): inactive
- inhibition at 100 µM (Solanum lycopersicum [27]): 20%
- Activity (Solanum lycopersicum [28]): inactive
- Activity (Triticum aestivum [29]): inactive
- Activity (Solanum lycopersicum [30]): >40%
- Activity (Lactuca sativa [31]): inactive
- Activity (Lactuca sativa [32]): 20%
- Activity (Hordeum vulgare [33]): >40%
- Activity (Lactuca sativa [34]): <20%
- inhibition (Triticum aestivum [35]): inactive
- inhibition at 100 µM (Hordeum vulgare [36]): > 40%
- inhibition at 100 µM (Lactuca sativa [37]): < 20%
- Activity (Lactuca sativa [38]): 20%
- inhibition (Lepidium sativum [39]): inactive
- inhibition at 100 µM (Allium cepa [40]; 120 h): 20%
- Activity (Triticum aestivum [41]): <20%
- inhibition at 100 µM (Lactuca sativa [42]): 20%
- inhibition at 100 µM (Allium cepa [43]): 20%
- inhibition at 100 µM (Lepidium sativum [44]): < 20%

Structure (SMILES): C[C@]1(C(=O)O)CCC[C@]2(C)C3=CC(=O)OC[C@]34O[C@@H]4C[C@@H]12
- Activity (Allium cepa [1]): inactive
- Activity (Hordeum vulgare [2]): inactive
- Activity (Allium cepa [3]): <20%
- Activity (Allium cepa [4]): inactive
- inhibition at 100 µM (Lactuca sativa [5]): < 20%
- Activity (Solanum lycopersicum [6]): <20%
- Activity (Lactuca sativa [7]): <20%
- Activity (Hordeum vulgare [8]): 20%
- inhibition (Lactuca sativa [9]): inactive
- inhibition at 0.01 µM (Hordeum vulgare [45]): -72%
- inhibition (Hordeum vulgare [11]): inactive
- inhibition (Triticum aestivum [12]): inactive
- inhibition (Triticum aestivum [13]): inactive
- Activity (Lepidium sativum [14]): 20%
- inhibition at 100 µM (Hordeum vulgare [15]): > 40%
- inhibition (Allium cepa [16]): inactive
- inhibition at 100 µM (Lepidium sativum [18]): 20%
- Activity (Lepidium sativum [19]): <20%
- Activity (Triticum aestivum [20]): inactive
- inhibition at 100 µM (Solanum lycopersicum [21]): 20%
- inhibition (Solanum lycopersicum [22]): inactive
- Activity (Lactuca sativa [23]): <20%
- inhibition at 100 µM (Lactuca sativa [24]): < 20%
- inhibition at 100 µM (Lactuca sativa [25]; 120 h): < 20%
- Activity (Lepidium sativum [26]): inactive
- inhibition at 100 µM (Solanum lycopersicum [27]): < 20%
- Activity (Solanum lycopersicum [28]): inactive
- Activity (Triticum aestivum [29]): inactive
- Activity (Solanum lycopersicum [30]): 20%
- Activity (Lactuca sativa [31]): <20%
- Activity (Lactuca sativa [32]): <20%
- Activity (Hordeum vulgare [33]): >40%
- Activity (Lactuca sativa [34]): inactive
- inhibition (Triticum aestivum [35]): inactive
- inhibition at 100 µM (Hordeum vulgare [36]): 20%
- inhibition at 100 µM (Lactuca sativa [37]): < 20%
- Activity (Lactuca sativa [38]): <20%
- inhibition (Lepidium sativum [39]): inactive
- inhibition (Allium cepa [40]): inactive
- Activity (Triticum aestivum [41]): inactive
- inhibition at 100 µM (Lactuca sativa [42]): < 20%
- inhibition at 100 µM (Allium cepa [43]): < 20%
- inhibition at 100 µM (Lepidium sativum [44]): < 20%
